Laboratory results published in US8575193B2, “N-substituted tetrahydroisoquinoline/isoindoline hydroxamic acid compounds” (4SC AG, priority 2008, dated 2013).
Where a name gives a salt, the structure may show the parent alone.

Legend:
[1] = Cellular cytotoxicity assay (Alamar Blue/Resazurin), HeLa; type: cell-based; conditions: human, HeLa cells, 72 hours incubation, Resazurin, read-out: HeLa Cytotoxicity [pIC50] (converted)
Protocol: (§1) The anti-proliferative activity of the compounds as described herein, is evaluated with various solid and hematological cancer cell lines using the Alamar Blue (Resazurin) cell viability assay (O'Brien et al, Eur J Biochem 267, 5421-5426, 2000). Resazurin is reduced to the fluorescent resorufin by cellular dehydrogenase activity, correlating with viable, proliferating cells. Test compounds are dissolved as 20 mM solutions in dimethylsulfoxide (DMSO) and subsequently diluted in semi-logarithmic steps. The cancer cell lines are seeded into 96 well flat bottom plates at respective cell densities in a volume of 200 μl per well to allow continuous proliferation during the experiment. 24 hours after seeding 1 μl each of the compound dilutions is added into each well of the 96 well plate. Wells containing untreated control cells are filled with 200 μl DMEM medium containing 0.5% v:v DMSO. The cells are then incubated with the substances for 72 hours at 37° C. in a humidified atmosphere containing 5% carbon dioxide. To determine the viability of the cells, 20 μl of a Resazurin solution (Sigma; 90 mg/l) are added. After 4 hours incubation at 37° C. the fluorescence is measured at an extinction of 544 nm and an emission of 590 nm. For the calculation of the cell viability the emission value from untreated cells is set as 100% viability and the emission rates of treated cells are set in relation to the values of untreated cells. Viabilities are expressed as % values. The corresponding pIC50 values of the compounds for cytotoxic activity are determined from the concentration-effect curves by means of non-linear regression.

rHDAC3 = target: T1, rHDAC3 (Homo sapiens, UniProt O15379); assay: rHDAC3 enzymatic assay (recombinant FLAG-HDAC3); type: biochemical; conditions: FLAG-HDAC3 from insect cells; 6 μM Ac-NH-GGK(Ac)-AMC, 2 h at 30° C.; read-out: rHDAC3 [pIC50] (converted)
T1 construct: FLAG; made in house; host or cells: baculovirus-infected Sf21 insect cells
T1 sequence (O15379 whole entry): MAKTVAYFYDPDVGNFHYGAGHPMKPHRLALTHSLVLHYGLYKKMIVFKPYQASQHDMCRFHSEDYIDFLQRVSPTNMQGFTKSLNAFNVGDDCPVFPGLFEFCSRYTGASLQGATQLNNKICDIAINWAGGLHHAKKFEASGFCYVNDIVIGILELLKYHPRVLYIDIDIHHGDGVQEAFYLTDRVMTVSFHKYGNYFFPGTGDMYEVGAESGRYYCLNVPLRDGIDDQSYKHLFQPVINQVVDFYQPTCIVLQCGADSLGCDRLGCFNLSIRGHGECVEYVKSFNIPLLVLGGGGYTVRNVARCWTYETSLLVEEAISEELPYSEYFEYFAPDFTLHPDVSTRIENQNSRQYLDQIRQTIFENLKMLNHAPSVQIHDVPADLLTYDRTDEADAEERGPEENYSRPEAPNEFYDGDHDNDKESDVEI
T1 sequence (Q9Y618 whole entry partner): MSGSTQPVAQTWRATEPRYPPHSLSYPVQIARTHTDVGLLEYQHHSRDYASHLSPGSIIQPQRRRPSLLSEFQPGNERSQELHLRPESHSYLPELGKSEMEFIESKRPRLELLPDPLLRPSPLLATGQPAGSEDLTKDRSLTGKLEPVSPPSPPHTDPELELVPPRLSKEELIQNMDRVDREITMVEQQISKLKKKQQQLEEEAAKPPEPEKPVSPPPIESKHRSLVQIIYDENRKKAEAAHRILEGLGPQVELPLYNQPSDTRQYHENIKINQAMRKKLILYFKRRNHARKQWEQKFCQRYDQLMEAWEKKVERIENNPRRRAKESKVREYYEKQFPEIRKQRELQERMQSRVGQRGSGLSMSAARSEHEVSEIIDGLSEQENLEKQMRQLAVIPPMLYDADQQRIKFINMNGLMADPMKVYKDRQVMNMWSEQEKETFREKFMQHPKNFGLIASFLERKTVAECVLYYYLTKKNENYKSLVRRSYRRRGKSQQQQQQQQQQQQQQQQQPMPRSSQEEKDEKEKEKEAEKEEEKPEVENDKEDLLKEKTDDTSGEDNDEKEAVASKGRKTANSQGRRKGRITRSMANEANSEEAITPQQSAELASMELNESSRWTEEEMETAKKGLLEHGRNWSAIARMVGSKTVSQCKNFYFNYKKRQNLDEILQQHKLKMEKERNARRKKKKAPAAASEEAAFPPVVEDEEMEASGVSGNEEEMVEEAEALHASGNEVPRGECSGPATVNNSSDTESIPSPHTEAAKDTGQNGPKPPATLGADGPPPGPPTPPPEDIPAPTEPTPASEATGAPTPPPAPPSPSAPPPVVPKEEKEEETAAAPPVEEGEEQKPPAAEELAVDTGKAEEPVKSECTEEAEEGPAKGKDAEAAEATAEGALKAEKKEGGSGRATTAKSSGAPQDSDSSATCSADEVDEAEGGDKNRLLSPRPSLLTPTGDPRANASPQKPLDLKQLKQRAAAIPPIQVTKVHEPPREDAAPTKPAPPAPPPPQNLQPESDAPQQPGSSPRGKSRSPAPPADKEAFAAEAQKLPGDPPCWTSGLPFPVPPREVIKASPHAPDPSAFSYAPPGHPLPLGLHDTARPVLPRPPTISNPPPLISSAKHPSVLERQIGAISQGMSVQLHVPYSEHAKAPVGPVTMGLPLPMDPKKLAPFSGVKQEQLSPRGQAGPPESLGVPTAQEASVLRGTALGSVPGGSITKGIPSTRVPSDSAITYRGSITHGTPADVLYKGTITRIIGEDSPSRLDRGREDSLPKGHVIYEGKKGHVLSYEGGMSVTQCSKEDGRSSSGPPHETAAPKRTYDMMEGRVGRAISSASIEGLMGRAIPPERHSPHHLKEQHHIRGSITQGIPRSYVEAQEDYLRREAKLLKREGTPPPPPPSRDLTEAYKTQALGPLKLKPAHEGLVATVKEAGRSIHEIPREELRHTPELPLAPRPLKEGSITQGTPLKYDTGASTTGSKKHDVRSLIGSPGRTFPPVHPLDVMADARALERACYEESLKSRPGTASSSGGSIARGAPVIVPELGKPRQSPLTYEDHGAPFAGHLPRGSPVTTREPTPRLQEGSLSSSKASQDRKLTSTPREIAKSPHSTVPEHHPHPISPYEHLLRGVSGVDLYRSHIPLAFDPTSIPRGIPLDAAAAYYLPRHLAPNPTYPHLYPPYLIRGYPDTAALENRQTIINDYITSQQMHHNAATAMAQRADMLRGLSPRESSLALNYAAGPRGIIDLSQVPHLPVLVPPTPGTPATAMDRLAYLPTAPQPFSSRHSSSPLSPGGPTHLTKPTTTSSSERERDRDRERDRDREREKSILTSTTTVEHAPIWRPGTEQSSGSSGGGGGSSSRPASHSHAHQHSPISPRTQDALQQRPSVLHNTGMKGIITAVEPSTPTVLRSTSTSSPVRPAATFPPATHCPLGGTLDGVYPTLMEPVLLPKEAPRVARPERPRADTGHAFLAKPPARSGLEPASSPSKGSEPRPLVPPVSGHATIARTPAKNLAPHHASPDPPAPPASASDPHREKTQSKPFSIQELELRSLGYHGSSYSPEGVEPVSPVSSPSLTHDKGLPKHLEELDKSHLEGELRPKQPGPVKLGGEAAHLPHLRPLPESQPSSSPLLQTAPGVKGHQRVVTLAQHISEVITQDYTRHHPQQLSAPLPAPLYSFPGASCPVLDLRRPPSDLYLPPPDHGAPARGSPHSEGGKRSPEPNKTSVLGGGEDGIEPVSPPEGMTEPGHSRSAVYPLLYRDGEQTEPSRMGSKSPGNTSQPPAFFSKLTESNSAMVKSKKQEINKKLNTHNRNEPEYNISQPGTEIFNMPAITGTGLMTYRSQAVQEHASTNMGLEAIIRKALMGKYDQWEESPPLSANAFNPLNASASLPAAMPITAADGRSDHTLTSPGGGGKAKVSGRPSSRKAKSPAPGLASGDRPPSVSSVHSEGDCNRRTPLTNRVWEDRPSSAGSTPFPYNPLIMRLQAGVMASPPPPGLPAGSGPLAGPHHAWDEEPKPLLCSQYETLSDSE
Source text: (§2) Human HDAC1 and HDAC6 fused with the FLAG epitope are stably expressed in HEK293 cells while human HDAC3 and HDAC8 fused with the FLAG epitope are overexpressed in baculo-virus infected insect (Sf21) cells. To ensure stability of FLAG-HDAC3 the SMRT protein is co-expressed in the corresponding insect cells. […] FLAG-HDAC3 and FLAG-HDAC8 are also purified by M2-agarose affinity chromatography after mass cultivation of the insect cells and cell lysis.
(§3) The HDAC enzyme activity assay is done as described by Wegener et al. (Chem. & Biol. 10, 61-68, 2003). Briefly 40 μl of a 1:100 dilution (=0.4 μl) nuclear HeLa extract (mixture of class I and II HDACs), 29 μl enzyme buffer (15 mM Tris HCl pH 8.1, 0.25 mM EDTA, 250 mM NaCl, 10% v:v glycerol) and 1 μl test compound are added to a well of a 96 well microtiter plate and reaction started by addition of 3 μl substrate (Ac-NH-GGK(Ac)-AMC; final concentration 25 μM and final volume […]). […] After incubation at room temperature for further 40 min, fluorescence is measured using a Wallac Victor 1420 multilabel counter (Ex 355 nm, Em 460 nm) for quantification of AMC (7-amino-4-methylcoumarin) generated by trypsine cleavage of the deacetylated peptide. […] The corresponding pIC50 values of the compounds for HDAC inhibitory activity are determined from the concentration-effect curves by means of non-linear regression (Graphpad Prism software).
(§4) The HDAC1, HDAC3 and HDAC6 enzymatic assays are done with slight modifications with recombinant FLAG-HDAC1 and FLAG-HDAC6 proteins isolated from HEK293 cell lysates or recombinant FLAG-HDAC3 isolated from insect cells, respectively. The HDAC8 enzymatic assay using recombinant FLAG-HDAC8 isolated from insect cells is done with a different substrate. About 4.5 ng/well FLAG-HDAC1 and 3.1 ng/well FLAG-HDAC6 (dependent on batches and specific activity) are incubated with 6 μM or 10 μM Ac-NH-GGK(Ac)-AMC substrate, respectively, for 3 h at 30° C. About 1.7 ng/well FLAG-HDAC3 is incubated with 6 μM Ac-NH-GGK(Ac)-AMC substrate for 2 h at 30° C., while approximately 130 ng/well FLAG-HDAC8 is incubated with 50 μM Ac-RHK(Ac)K(Ac)-AMC substrate for 3 h at 30° C. Termination of the reaction and all further steps are done as described for HeLa cell nuclear extracts as a source for HDAC enzymatic activity. The corresponding pIC50 values of the compounds for HDAC1, HDAC3, HDAC6 and HDAC8 inhibitory activity are determined from the concentration-effect curves by means of non-linear regression.

rHDAC1 = target: T2, rHDAC1 (Homo sapiens, UniProt Q13547); assay: rHDAC1 enzymatic assay (recombinant FLAG-HDAC1); type: biochemical; conditions: FLAG-HDAC1 from HEK293; 6 μM Ac-NH-GGK(Ac)-AMC, 3 h at 30° C.; read-out: rHDAC1 [pIC50] (converted)
T2 construct: FLAG; made in house
T2 sequence (Q13547 whole entry): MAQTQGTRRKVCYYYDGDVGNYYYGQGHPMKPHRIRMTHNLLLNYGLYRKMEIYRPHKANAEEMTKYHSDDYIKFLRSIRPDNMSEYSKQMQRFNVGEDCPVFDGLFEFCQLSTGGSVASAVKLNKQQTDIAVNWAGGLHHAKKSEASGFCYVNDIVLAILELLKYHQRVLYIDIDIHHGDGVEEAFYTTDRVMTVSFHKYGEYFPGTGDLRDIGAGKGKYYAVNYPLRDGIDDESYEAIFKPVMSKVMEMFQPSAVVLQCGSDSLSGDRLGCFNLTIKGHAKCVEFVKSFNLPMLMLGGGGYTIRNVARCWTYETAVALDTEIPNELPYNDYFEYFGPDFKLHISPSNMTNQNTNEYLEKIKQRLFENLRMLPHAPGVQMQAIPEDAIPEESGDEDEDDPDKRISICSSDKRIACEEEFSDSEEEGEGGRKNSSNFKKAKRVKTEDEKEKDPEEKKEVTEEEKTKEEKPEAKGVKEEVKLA
Source text: as §2, §3, §4

rHDAC8 = target: T3, rHDAC8 (Homo sapiens, UniProt Q9BY41); assay: rHDAC8 enzymatic assay (recombinant FLAG-HDAC8); type: biochemical; conditions: FLAG-HDAC8 from insect cells; 50 μM Ac-RHK(Ac)K(Ac)-AMC, 3 h at 30° C.; read-out: rHDAC8 [pIC50] (converted)
T3 construct: FLAG; made in house; host or cells: baculovirus-infected Sf21 insect cells
T3 sequence (Q9BY41 1-377): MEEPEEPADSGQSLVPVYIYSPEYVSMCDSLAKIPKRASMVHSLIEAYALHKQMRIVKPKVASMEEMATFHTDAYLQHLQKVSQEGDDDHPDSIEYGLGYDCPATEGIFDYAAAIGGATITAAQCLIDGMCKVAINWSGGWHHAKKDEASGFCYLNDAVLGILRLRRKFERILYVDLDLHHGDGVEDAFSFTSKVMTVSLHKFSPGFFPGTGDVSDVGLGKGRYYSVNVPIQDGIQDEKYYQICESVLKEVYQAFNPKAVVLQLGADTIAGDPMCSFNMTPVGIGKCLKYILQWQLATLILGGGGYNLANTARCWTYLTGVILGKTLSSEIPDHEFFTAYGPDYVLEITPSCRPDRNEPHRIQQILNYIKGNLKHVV
Source text: as §2, §3, §4

[2] = Cellular cytotoxicity assay (Alamar Blue/Resazurin), A549; type: cell-based; conditions: human, A549 cells; A549, 72 hours incubation, Resazurin; read-out: A549 Cytotoxicity [pIC50] (converted)
Protocol: as §1

SMILES	IC50 (rHDAC3) [µM]	IC50 (rHDAC1) [µM]	IC50 (rHDAC8) [µM]	IC50 at 72 h [1] [µM]	IC50 at 72 h [2] [µM]
O=C(NO)c1ccc2c(c1)CN(C(=O)Cc1c[nH]c3ccccc13)CC2 [Example 18, N-Hydroxy-2-(1H-indol-3-ylacetyl)-1,2,3,4-tetrahydroisoquinoline-7-carboxamide]	1 to 10	0.1 to 10	0.01 to 1	1 to 100	1 to 100
COCCOCC(=O)N1CCc2cc(C(=O)NO)ccc2C1 [Example 11, N-Hydroxy-2-[(2-methoxyethoxy)acetyl]-1,2,3,4-tetrahydroisoquinoline-6-carboxamide]	10 to 100	10 to 100	1 to 10	> 100	> 100
CN(C)CCCC(=O)N1CCc2cc(C(=O)NO)ccc2C1 [Example 9, 2-[4-(Dimethylamino)butanoyl]-N-hydroxy-1,2,3,4-tetrahydroisoquinoline-6-carboxamide hydrochloride]	10 to 100	0.1 to 10	1 to 10	1 to 100	1 to 100
O=C(NO)c1ccc2c(c1)CCN(C(=O)Cc1c[nH]c3ccccc13)C2 [Example 1, N-Hydroxy-2-(indol-3-ylacetyl)-1,2,3,4-tetrahydroisoquinoline-6-carboxamide hydrochloride]	1 to 10	0.1 to 10	1 to 10	1 to 100	1 to 100
O=C(NO)c1ccc2c(c1)CN(C(=O)NCCc1ccccc1)CC2 [Example 22, N7-Hydroxy-N2-(2-phenylethyl)-3,4-dihydroisoquinoline-2,7(1H)-dicarboxamide]	1 to 10	0.1 to 10	0.01 to 1	1 to 100	1 to 100
O=C(NO)c1ccc2c(c1)CN(C(=O)C1CCOC1)CC2 (stereo not drawn) [Example 20, N-Hydroxy-2-(tetrahydrofuran-3-ylcarbonyl)-1,2,3,4-tetrahydroisoquinoline-7-carboxamide]	10 to 100	0.1 to 10	0.01 to 1	> 100	> 100
O=C(NO)c1ccc2c(c1)CCN(C(=O)C1CCC1)C2 [Example 3, 2-(Cyclobutylcarbonyl)-N-hydroxy-1,2,3,4-tetrahydroisoquinoline-6-carboxamide]	10 to 100	0.1 to 10	1 to 10	1 to 100	> 100

More lines, main results first:

IC50 (rHDAC3) [µM]	IC50 (rHDAC1) [µM]	IC50 (rHDAC8) [µM]	SMILES	IC50 at 72 h [1] [µM]	IC50 at 72 h [2] [µM]
10 to 100	0.1 to 10	0.01 to 1	O=C(NO)c1ccc2c(c1)CN(C(=O)Cc1ccccn1)CC2 [Example 21, N-Hydroxy-2-(pyridin-2-ylacetyl)-1,2,3,4-tetrahydroisoquinoline-7-carboxamide hydrochloride]	1 to 100	> 100
10 to 100	0.1 to 10	1 to 10	COCCCNC(=O)N1CCc2cc(C(=O)NO)ccc2C1 [Example 5, N6-Hydroxy-N2-(3-methoxypropyl)-3,4-dihydroisoquinoline-2,6(1H)-dicarboxamide]	> 100	> 100
10 to 100	0.1 to 10	1 to 10	O=C(NO)c1ccc2c(c1)CCN(C(=O)C1CC1)C2 [Example 16, N-Hydroxy-2-(cyclopropylcarbonyl)-1,2,3,4-tetrahydroisoquinoline-6-carboxamide]	> 100	> 100
10 to 100	0.1 to 10	0.01 to 1	CC#CC(=O)N1CCc2ccc(C(=O)NO)cc2C1 [Example 17, 2-But-2-ynoyl-N-hydroxy-1,2,3,4-tetrahydroisoquinoline-7-carboxamide]	1 to 100	> 100
10 to 100	10 to 100	1 to 10	O=C(NO)c1ccc2c(c1)CCN(C(=O)C1CCOC1)C2 (stereo not drawn) [Example 13, N-Hydroxy-2-(tetrahydrofuran-3-ylcarbonyl)-1,2,3,4-tetrahydroisoquinoline-6-carboxamide]	> 100	> 100
